Measurements published in ChEMBL document CHEMBL2073899, “Quantitative distinctions of active site molecular recognition by P-glycoprotein and cytochrome P450 3A4” (Chem Res Toxicol, 2001).

Molecular target: ATP-dependent translocase ABCB1 (Homo sapiens, UniProt P08183)
Test: TP_TRANSPORTER: inhibition of Daunorubicin efflux in NIH-3T3-G185 cells

Chain of ATP-dependent translocase ABCB1 (P08183 whole entry): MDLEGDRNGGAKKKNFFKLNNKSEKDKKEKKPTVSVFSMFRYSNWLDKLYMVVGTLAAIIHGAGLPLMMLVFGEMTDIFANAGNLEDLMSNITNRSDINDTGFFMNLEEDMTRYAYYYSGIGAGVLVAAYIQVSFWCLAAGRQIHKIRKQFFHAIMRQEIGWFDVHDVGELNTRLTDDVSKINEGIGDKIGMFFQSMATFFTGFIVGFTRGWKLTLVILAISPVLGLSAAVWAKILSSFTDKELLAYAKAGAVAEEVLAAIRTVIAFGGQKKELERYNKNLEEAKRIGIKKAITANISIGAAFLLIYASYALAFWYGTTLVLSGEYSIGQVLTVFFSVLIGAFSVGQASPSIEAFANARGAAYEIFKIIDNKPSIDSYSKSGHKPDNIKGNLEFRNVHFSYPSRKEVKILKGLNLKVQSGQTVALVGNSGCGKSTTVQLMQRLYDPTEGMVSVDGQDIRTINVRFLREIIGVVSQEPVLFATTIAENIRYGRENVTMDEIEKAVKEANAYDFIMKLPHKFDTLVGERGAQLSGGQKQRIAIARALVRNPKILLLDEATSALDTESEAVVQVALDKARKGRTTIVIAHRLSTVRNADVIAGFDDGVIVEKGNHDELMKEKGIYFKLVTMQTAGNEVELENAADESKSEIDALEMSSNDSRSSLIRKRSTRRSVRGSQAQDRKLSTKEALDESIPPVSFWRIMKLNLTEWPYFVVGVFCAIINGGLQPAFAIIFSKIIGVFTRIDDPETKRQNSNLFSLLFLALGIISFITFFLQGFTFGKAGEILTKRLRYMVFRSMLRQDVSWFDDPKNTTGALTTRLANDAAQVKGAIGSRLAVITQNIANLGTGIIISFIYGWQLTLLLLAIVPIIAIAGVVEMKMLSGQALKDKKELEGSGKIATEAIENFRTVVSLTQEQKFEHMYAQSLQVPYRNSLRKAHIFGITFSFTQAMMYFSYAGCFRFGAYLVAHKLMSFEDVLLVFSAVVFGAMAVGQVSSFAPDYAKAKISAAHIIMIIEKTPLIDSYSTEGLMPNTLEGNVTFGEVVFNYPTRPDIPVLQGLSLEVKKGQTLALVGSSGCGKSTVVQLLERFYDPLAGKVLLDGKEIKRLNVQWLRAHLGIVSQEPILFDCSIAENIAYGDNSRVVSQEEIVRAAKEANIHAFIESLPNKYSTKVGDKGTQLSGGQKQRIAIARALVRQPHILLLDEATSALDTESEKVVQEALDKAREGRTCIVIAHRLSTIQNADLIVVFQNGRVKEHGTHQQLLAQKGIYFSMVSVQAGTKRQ

Row | Structure (SMILES) | IC50 [µM]
1 | COc1ccc(-c2cc(=O)c3c(OC)c(OC)c(OC)c(OC)c3o2)cc1OC [NOBILETIN] | 11.5
2 | COc1ccc(CCN(C)CCCC(C#N)(c2cc(OC)c(OC)c(OC)c2)C(C)C)cc1OC (stereo unspecified) [GALLOPAMIL] | 3.2
3 | COC(=O)C1=C(C)NC(C)=C(C(=O)OC)C1c1ccccc1[N+](=O)[O-] [NIFEDIPINE] | 113
4 | CC(C)[C@@H]1NC(=O)[C@H](C)OC(=O)[C@@H](C(C)C)NC(=O)[C@@H](C(C)C)OC(=O)[C@H](C(C)C)NC(=O)[C@H](C)OC(=O)[C@@H](C(C)C)NC(=O)[C@@H](C(C)C)OC(=O)[C@H](C(C)C)NC(=O)[C@H](C)OC(=O)[C@@H](C(C)C)NC(=O)[C@@H](C(C)C)OC1=O [VALINOMYCIN] | 3.2

The remaining lines, values ahead:

Row | IC50 [µM] | Structure (SMILES)
5 | 23.6 | CC(=O)S[C@@H]1CC2=CC(=O)CC[C@]2(C)[C@H]2CC[C@@]3(C)[C@@H](CC[C@@]34CCC(=O)O4)[C@H]12 [SPIRONOLACTONE]
6 | 0.9 | COc1ccc(CCNCCCC(C#N)(c2ccc(OC)c(OC)c2)C(C)C)cc1OC (stereo unspecified) [NORVERAPAMIL]
